Measured values from patent US20200360331A1, “COMPOSITIONS COMPRISING 15-HEPE AND/OR 15-HETrE AND METHODS OF TREATING OR PREVENTING CARDIOMETABOLIC DISEASE, METABOLIC SYNDROME, AND/OR RELATED DISEASES” (Afimmune Limited, priority 2019, published 2020).
Entries after “also recorded” stand apart in the source; their conditions may differ.

Assays:
[1] = tested on: Collagen Type 1; test: BDL study: quantitative RT-PCR of liver, Collagen Type 1; assay type: in vivo, C57BL/6J mice; conditions: BDL mice liver
Description: (§1) Quantitative RT-PCR: Total ribonucleic acid (RNA) was extracted from liver samples using RNAiso (Takara Bio, Japan) according to the manufacturer's instructions. One μg of RNA was reverse-transcribed using a reaction mixture containing 4.4 mM magnesium chloride (MgCl2) (F. Hoffmann-La Roche, Switzerland), 40 U RNase inhibitor (Toyobo, Japan), 0.5 mM dNTP (Promega, USA), 6.28 μM random hexamer (Promega), 5× first strand buffer (Promega), 10 mM dithiothreitol (Invitrogen, USA) and 200 U MMLV-RT (Invitrogen) in a final volume of 20 μL. The reaction was carried out for 1 hour at 37° C., followed by 5 minutes at 99° C. Real-time PCR was performed using real-time PCR DICE and TB Green™ Premix Ex Taq™ II (Takara Bio). To calculate the relative mRNA expression level, the expression of each gene (α-SMA, TIMP-1, TGF-β and Collagen Type 1) was normalized to that of reference gene 36B4 (gene symbol: Rplp0). Information regarding the PCR-primer sets and the plate layout are described in Tables 8 and 9.

[2] = biological target: T1, type II TGF-β receptor (Homo sapiens, UniProt P37173); test: Degradation of type II TGF-β receptor in HepG2 cells; assay type: cell-based; conditions: increasing doses for 1 hour, then 200 pM TGF-β for 48 hours
T1 construct: endogenous in cells; host or cells: HepG2
Description: The effects of 15-HEPE on TGF-β-induced signaling and cellular responses were determined. To test the effect of 15-HEPE on TGF-β-induced signaling, the activities of 15-HEPE to regulate TGF-β-stimulated Smad2 phosphorylation and nuclear translocation, both of which are key signaling events leading to TGF-β-induced cellular responses, were tested. One important biological activity of TGF-β is transcriptional activation of genes responsible for epithelial-mesenchymal transition (EMT), which is a crucial event in wound healing, tissue fibrosis, and cancer progression. The effect of 15-HEPE on TGFβ-induced epithelial mesenchymal transition related proteins (such as fibronectin, PAI-1, and N-cadherin etc.) expression in HepG2 and […] cells were assessed. HepG2 cells (human hepatoma cell line) were treated in increasing doses of 15-HEPE stage II in DMEM containing 0.1% of FBS for 1 hour and continually stimulated with or without 200 picomolar (pM) of TGF-β for 48 hours.
HepG2 cells (human hepatoma cell line) were treated in increasing doses of 15-HEPE stage II in DMEM containing 0.1% of FBS for 1 hour and continually stimulated with or without 200 picomolar (pM) of TGF-β for 48 hours. The two panels shown in FIG. 18A are two separate experiments run under the same experimental conditions.

[3] = tested on: NAFLD patients; test: Phase IIa NAFLD study: safety (adverse events); assay type: in vivo, human
Source text: The study was planned to include 96 evaluable patients with 32 patients randomized per treatment group.
The intensity of an AE is an estimate of the relative severity of the event made by the Investigator based on his or her clinical experience. The following definitions were used to rate the severity of an AE: • Mild: The adverse event was transient and easily tolerated. • Moderate: The adverse event caused the patient discomfort and interrupted the patient's usual activities. • Severe: The adverse event caused considerable interference with the patient's usual activities and may have been incapacitating or life-threatening.
Causality of the AE to experimental treatment was also established by taking into account the patient's history, most recent physical examination findings, and concomitant medications. The following definitions were used to determine causality of an AE: • Not related: temporal relationship of the onset of the AE, relative to the experimental treatment was not reasonable or another cause could explain the occurrence of the AE. • Related: temporal relationship of the onset of the AE, relative to the experimental treatment was reasonable, followed a known response pattern to the treatment, and an alternative cause was unlikely.

[4] = tested on: Alpha-SMA; test: BDL study: quantitative RT-PCR of liver, Alpha-SMA; assay type: in vivo, C57BL/6J mice; conditions: BDL mice liver
Description: as §1

[5] = relative mRNA normalized to 36B4, 50 mg/kg PO QD Day 0-13
[6] = relative mRNA normalized to 36B4, 250 mg/kg PO QD Day 0-13
[7] = relative mRNA normalized to 36B4, 500 mg/kg PO QD Day 0-13

T1 sequence (P37173 23-567): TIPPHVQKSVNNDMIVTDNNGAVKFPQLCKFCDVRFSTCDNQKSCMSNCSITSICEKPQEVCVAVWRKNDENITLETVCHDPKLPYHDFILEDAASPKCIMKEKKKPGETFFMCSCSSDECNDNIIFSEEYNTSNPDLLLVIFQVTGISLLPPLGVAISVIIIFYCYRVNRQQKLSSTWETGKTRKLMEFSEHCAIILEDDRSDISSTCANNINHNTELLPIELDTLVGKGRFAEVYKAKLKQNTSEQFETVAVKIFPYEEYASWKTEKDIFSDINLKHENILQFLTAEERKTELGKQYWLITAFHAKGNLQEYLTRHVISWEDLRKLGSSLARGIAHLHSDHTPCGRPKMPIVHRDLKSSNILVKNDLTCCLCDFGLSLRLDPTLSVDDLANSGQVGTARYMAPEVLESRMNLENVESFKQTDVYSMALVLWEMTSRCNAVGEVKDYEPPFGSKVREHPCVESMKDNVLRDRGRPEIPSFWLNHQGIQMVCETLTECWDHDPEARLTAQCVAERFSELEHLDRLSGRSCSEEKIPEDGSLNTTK

SMILES: CC/C=C\CC(O)/C=C/C=C\C/C=C\C/C=C\CCCC(=O)O (centres unmarked) [DS102, 15-hydroxy-eicosa-5Z,8Z,11Z,13E,17Z-pentaenoic acid]
- Collagen Type 1 mRNA expression level compared with the Vehicle group ([1]; 500 mg/kg): tended to decrease; also recorded: trend approaching significance
- Collagen Type 1 mRNA expression level vs Vehicle group ([1]; DS102 treatment groups): no significant differences
- Collagen Type 1 gene expression [1, 5]: 4.94 ± 2.76
- Collagen Type 1 gene expression [1, 6]: 4.21 ± 1.90
- Collagen Type 1 gene expression [1, 7]: 2.51 ± 1.39
- degradation of type II TGF-β receptor [2]: induced degradation of type II TGF-β receptor
- Death, patients n ([3]; 1 g DS102 (n = 32)): 0
- Patients with ≥1 AE related to study drug, % ([3]; 1 g DS102 (n = 32)): (6.3) %
- Patients with ≥1 AE, % ([3]; 1 g DS102 (n = 32)): (59.4) %
- Death, patients n ([3]; 2 g DS102 (n = 30)): 0
- Patients with ≥1 AE related to study drug, % ([3]; 2 g DS102 (n = 30)): (10.0) %
- Patients with ≥1 AE, % ([3]; 2 g DS102 (n = 30)): (50.0) %
- Patients with ≥1 SAE, % ([3]; 2 g DS102 (n = 30)): (3.3) %
- drug related serious adverse events (SAEs) ([3]; NAFLD patients, 16 weeks): no drug related serious adverse events
- safety and tolerability compared to placebo ([3]; NAFLD patients, 16 weeks): safe and well tolerated
- α-SMA mRNA expression level compared with the Vehicle group ([4]; 500 mg/kg): tended to decrease; also recorded: trend approaching significance
- α-SMA mRNA expression level vs Vehicle group ([4]; DS102 treatment groups): no significant differences
- Alpha-SMA gene expression [4, 5]: 3.21 ± 1.67
- Alpha-SMA gene expression [4, 6]: 2.66 ± 1.33
- Alpha-SMA gene expression [4, 7]: 1.42 ± 0.75
